Key:
mouse TLR4/MD2 = target: T1, mouse TLR4/MD2 (Mus musculus, UniProt Q9JHF9+Q9QUK6); assay: mTLR4/MD2-HEK293 transfectant SEAP (QUANTI-Blue) dose response, AUC; format: cell-based; settings: 1 μg/ml to 4 ng/ml, 24 h, SEAP OD 650 nm vs log concentration
T1 construct: host or cells: HEK293
T1 sequence (Q9QUK6 26-835): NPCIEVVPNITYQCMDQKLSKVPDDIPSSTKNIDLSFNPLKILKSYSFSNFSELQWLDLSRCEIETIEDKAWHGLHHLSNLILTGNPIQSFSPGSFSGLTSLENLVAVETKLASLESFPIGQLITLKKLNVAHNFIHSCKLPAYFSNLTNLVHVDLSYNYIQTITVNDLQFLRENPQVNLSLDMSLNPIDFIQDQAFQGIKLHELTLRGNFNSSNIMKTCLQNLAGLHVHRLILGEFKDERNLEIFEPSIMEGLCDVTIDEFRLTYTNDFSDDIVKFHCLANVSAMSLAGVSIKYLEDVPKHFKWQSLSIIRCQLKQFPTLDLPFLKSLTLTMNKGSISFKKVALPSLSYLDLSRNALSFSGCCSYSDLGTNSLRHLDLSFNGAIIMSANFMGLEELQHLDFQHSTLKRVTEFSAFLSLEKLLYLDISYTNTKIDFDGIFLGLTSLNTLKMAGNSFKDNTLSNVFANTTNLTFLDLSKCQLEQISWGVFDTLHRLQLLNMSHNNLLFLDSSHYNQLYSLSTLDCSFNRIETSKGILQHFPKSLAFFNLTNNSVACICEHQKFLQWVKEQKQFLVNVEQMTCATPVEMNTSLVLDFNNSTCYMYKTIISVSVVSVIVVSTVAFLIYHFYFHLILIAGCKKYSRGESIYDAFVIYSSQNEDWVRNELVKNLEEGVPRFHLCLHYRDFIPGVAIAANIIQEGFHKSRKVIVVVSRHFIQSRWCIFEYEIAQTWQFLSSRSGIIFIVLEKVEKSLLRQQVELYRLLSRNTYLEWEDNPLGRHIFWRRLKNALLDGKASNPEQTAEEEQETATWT
T1 sequence (Q9JHF9 19-160): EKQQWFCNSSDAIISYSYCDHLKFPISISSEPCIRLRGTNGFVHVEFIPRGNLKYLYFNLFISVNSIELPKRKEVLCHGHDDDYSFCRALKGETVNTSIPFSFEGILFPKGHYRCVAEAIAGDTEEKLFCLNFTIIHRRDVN
Protocol: Cells were seeded in tissue culture treated clear flat bottom polystyrene 96 well plates (Costar, 3598) at 1e4 cells/well. Concentration-response curves were generated by addition of test compounds and incubation for 20 h at 37°C in an atmosphere of 5% CO2. LPS (E. coli 0111:B4, Ultra-pure, Invivogen) or PHAD (Avanti Polar Lipids) was used as a positive control. The SEAP released was quantified using p nitrophenyl phosphate as a substrate, and the absorbance at 405 nm was measured at 30 second intervals over several minutes using a microplate reader. Some data are recorded as the pEC50, the negative log of the EC50 value. Other data generated from these reporter cell lines were converted to AUC (area under the curve) values by interpolation of fitted cubic spline curve between OD value and log concentration levels. The calculation is performed using MESS package in statistical software R (www.r-project.org/).
Fig 4 Ugi compounds preferentially activate TLR4-HEK transfectants expressing human MD2. A-B) HEK293 cells transfected with human TLR4/MD2 or mouse TLR4/MD2 (InVivogen) were stimulated with TLR4 agonists including MPL, PHAD, and Ugi compounds at 1 μg/ml to 4 ng/ml and with LPS at 25 ng/ml to 64 pg/ml for 24 h. SNs were analyzed for SEAP content by the QUANTI-Blue assay (InVivogen) and analysis at 650 nm by spectrophotometer. AUC (area under the curve) values were calculated as in Methods. No AUC value was calculated for LPS since it was utilized with a different dose range. C) HEK transfectants with cis- or trans-species expression of TLR4, MD2, and CD14 were stimulated with Ugi compounds in a dose response range of 9 μM to 1 nM or with LPS (boxes) at 75 ng/ml to 5 pg/ml for 48 h. Data was obtained as Vmax calculated over the initial linear portion of the kinetic absorbance measurements. The AUC (area under the curve) value for the dose response curve of Vmax vs log10 (molar units) was calculated for each compound using Trapezoidal rule. TEXT PRINTED IN THE PICTURE: (A) MPL: hTLR4-HEK AUC: 0.55 | (A) AZ617: hTLR4-HEK AUC: 5.90 | (A) AZ618: hTLR4-HEK AUC: 6.56 | (A) AZ839: hTLR4-HEK AUC: 6.00 | (A) AZ161: hTLR4-HEK AUC: 5.54 | (A) AZ902: hTLR4-HEK AUC: 7.04 | (A) GLA: hTLR4-HEK AUC: 3.75 | (B) MPL: mTLR4-HEK AUC: 13.27 | (B) AZ617: mTLR4-HEK AUC: 0.89 | (B) AZ618: mTLR4-HEK AUC: 1.03 | (B) AZ839: mTLR4-HEK AUC: 0.93 | (B) AZ161: mTLR4-HEK AUC: 0.99 | (B) AZ902: mTLR4-HEK AUC: 1.55 | (B) GLA: mTLR4-HEK AUC: 14.24

[1] = Intrinsic clearance in presence of human microsomes; format: in vitro ADME; settings: read-out: Clint hm (intrinsic clearance, human microsomes)
Description: Fig 2 Optimization stages of Ugi products as TLR4 agonists. *Human TLR-4 NFκB SEAP reporter assays; protocol as described in Methods. Data are reported as pEC50, or negative log of the EC50 values. **Clint rh / hm represents intrinsic clearance in presence of rat hepatocytes (μL/min/10^6 cells) and human microsomes (μL/min/mg protein). […] Thus a drug molecule with LogD >4 might be considered to be very lipophilic and therefore more likely to suffer from rapid metabolic turnover, poor solubility and receptor promiscuity; whereas a LogD range of 1–3 is more likely to be associated with optimal physicochemical and drug-like properties. ^††Solubility was measured by dissolution of solid samples in buffer at pH 7.4.

| SMILES | mTLR4-HEK AUC (mouse TLR4/MD2) | microsomal CLint [1] [µL/min/mg] |
| --- | --- | --- |
| Cc1cc(C)cc(N(C(=O)c2cc(-c3ccccc3)n(-c3ccccc3)n2)C(C(=O)NC2CCCC2)c2ccc(CC(=O)O)cc2)c1 (centres unmarked) [AZ618, 2-(4-(2-(cyclopentylamino)-1-(N-(3,5-dimethylphenyl)-1,5-diphenyl-1H-pyrazole-3-carboxamido)-2-oxoethyl)phenyl)acetic acid] | 1.03 |  |
| CC(C)(C)c1ccc(N(C(=O)c2cc(-c3ccccc3)n(-c3ccccc3)n2)C(C(=O)NC2CCCC2)c2ccc(CC(=O)O)cc2)cc1 (centres unmarked) [AZ902] | 1.55 |  |
| O=C(O)Cc1ccc(C(C(=O)NC2CCCC2)N(C(=O)c2cc(-c3ccccc3)n(-c3ccccc3)n2)c2ccc3c(c2)CCC3)cc1 (centres unmarked) [AZ617] | 0.89 | < 3 |
| Cc1ccc(N(C(=O)c2cc(-c3ccccc3)n(-c3ccccc3)n2)C(C(=O)NC2CCCC2)c2ccc(CC(=O)O)cc2)cc1Cl (centres unmarked) [AZ161] | 0.99 |  |
